# Data as given in patent publication US20230338564A1, “NEODEGRADER CONJUGATES” (Orum Therapeutics, Inc., priority 2020, published 2023).
# What was measured:
# Experiment in all cases: In vitro antiproliferation assay, General Procedure 2 (CCK-8)
# [1] = test system: THP-1 cell line; format: cell-based; conditions: Homo sapiens, AML
# Source text: (§1) Cell Culture: Cell lines were obtained from the American Type Culture Collection (ATCC, Manassas, VA, USA) or Deutsche Sammlung von Mikroorganismen und Zellkulturen (DSMZ, Braunschweig, Germany) and maintained according to the culturing conditions specified by ATCC or DSMZ. Cells were thawed out and maintained in culture for at least two passages before proceeding with experimental conditions.
# (§2) Cytotoxicity assays: For adherent cell lines, the cells were dissociated with enzyme-free PBS-based cell dissociation buffer (Gibco, USA) and plated on tissue culture treated 96-well flat bottom polystyrene plates (Costar, Corning, USA) at appropriate cell densities depending on doubling time of the cells. 18 hours after plating, cells were treated with test articles at appropriate concentrations starting at 100 nM and diluted in 4-fold serial dilutions. For suspension cell lines, the cells were seeded on the same day of treatment and cells were treated as described above. Adherent cells were treated for 5 days and suspension cells were treated for 3 days. Cell proliferation was assessed using the Cell Counting Kit-8 (CCK-8, Dojindo Laboratories, Japan) and measurements were obtained using the Promega GloMax Discover plate reader (Promega, USA). Data were analyzed using GraphPad Prism software (GraphPad Software, San Diego, CA). All data points were obtained from technical triplicates and the experiments were validated using three biological replicates.
# [2] = test system: RH41 cell line; format: cell-based; conditions: Homo sapiens, Rhabdomyosarcoma
# Source text: as §1, §2
# [3] = test system: OCI-AML4 cell line; format: cell-based; conditions: Acute myeloid leukemia; read-out: IC50, OCI-AML4
# Source text: as §1, §2
# [4] = test system: OCI-M2 cell line; format: cell-based; conditions: Acute myelocytic leukemia
# Source text: as §1, §2
# [5] = test system: Daudi cell line; format: cell-based; conditions: Homo sapiens, NHL
# Source text: as §1, §2
# [6] = test system: PL-21 cell line; format: cell-based; conditions: Acute myeloid leukemia
# Source text: as §1, §2
# [7] = test system: SK-BR-3 cell line; format: cell-based; conditions: Homo sapiens, Breast, read-out: IC50, SKBR3
# Source text: as §1, §2
# [8] = test system: KE39 cell line; format: cell-based; conditions: Gastric
# Source text: as §1, §2
# [9] = test system: ML-2 cell line; format: cell-based; conditions: Homo sapiens, ML-2; Acute myelomonocytic leukemia; read-out: IC50, ML-2
# Source text: as §1, §2
# [10] = test system: HL-60 cell line; format: cell-based; conditions: Homo sapiens, HL-60; AML; read-out: IC50, HL-60
# Source text: as §1, §2
# [11] = test system: MV4-11 cell line; format: cell-based; conditions: Homo sapiens, MV4-11; Biphenotypic B myelomonocytic leukemia; read-out: IC50, MV4-11
# Source text: as §1, §2
# [12] = test system: SU-DHL-8 cell line; format: cell-based; conditions: Homo sapiens, NHL
# Source text: as §1, §2
# [13] = test system: RH30 cell line; format: cell-based; conditions: Rhabdomyosarcoma
# Source text: as §1, §2
# [14] = test system: NB-4 cell line; format: cell-based; conditions: Homo sapiens, Acute promyelocytic leukemia
# Source text: as §1, §2
# [15] = test system: SKM-1 cell line; format: cell-based; conditions: Homo sapiens, SKM-1; Acute myeloid leukemia; read-out: IC50, SKM-1
# Source text: as §1, §2
# [16] = test system: CMK cell line; format: cell-based; conditions: Homo sapiens, Acute megakaryocytic leukemia
# Source text: as §1, §2
# [17] = test system: OCI-M1 cell line; format: cell-based; conditions: Acute myeloid leukemia
# Source text: as §1, §2
# [18] = test system: LOVO cell line; format: cell-based; conditions: Homo sapiens, Colon
# Source text: as §1, §2
# [19] = test system: SNU182 cell line; format: cell-based; conditions: Homo sapiens, SNU-182; Liver
# Source text: as §1, §2
# [20] = test system: SKOV3 cell line; format: cell-based; conditions: Homo sapiens, SK-OV-3; Ovarian
# Source text: as §1, §2
# [21] = test system: U251MG cell line; format: cell-based; conditions: Homo sapiens, U-251; Brain
# Source text: as §1, §2
# [22] = test system: RPMI7951 cell line; format: cell-based; conditions: Homo sapiens, RPMI-7951; Skin
# Source text: as §1, §2
# [23] = test system: HS-SY-II synovial sarcoma cell line; format: cell-based
# Source text: as §1, §2
# [24] = test system: AGS cell line; format: cell-based; conditions: Homo sapiens, Gastric
# Source text: as §1, §2
# [25] = test system: ASKA synovial sarcoma cell line; format: cell-based
# Source text: as §1, §2
# [26] = test system: OCI-AML2 cell line; format: cell-based; conditions: Homo sapiens, OCI-AML2; Acute myeloid leukemia; read-out: IC50, OCI-AML2
# Source text: as §1, §2
# [27] = test system: MOLM13 cell line; format: cell-based; conditions: Homo sapiens, MOLM-13; AML; read-out: IC50, MOLM13
# Source text: as §1, §2
# [28] = test system: THLE2 cell line; format: cell-based; conditions: THLE-2; Human liver normal
# Source text: as §1, §2
# [29] = test system: Molp8 cell line; format: cell-based; conditions: Homo sapiens, MOLP-8; MM
# Source text: as §1, §2
# [30] = test system: JHUEM3 cell line; format: cell-based; conditions: Endometrial
# Source text: as §1, §2
# [31] = test system: BT-474 cell line; format: cell-based; conditions: Homo sapiens, Breast, read-out: IC50, BT474
# Source text: as §1, §2
# [32] = test system: EOL-1 cell line; format: cell-based, human; conditions: Homo sapiens, EOL1; Acute myeloid leukemia; read-out: IC50, EOL-1
# Source text: as §1, §2
compound,measurement,setting,value
"CNCCOCCc1ccc(NC(=O)NCc2ccc3c(c2)CN(C2CCC(=O)NC2=O)C3=O)cc1Cl (centres unmarked) [Compound P1, 1-(3-chloro-4-[2-[2-(methylamino)ethoxy]ethyl]phenyl)-3-[[2-(2,6-dioxopiperidin-3-yl)-1-oxo-3H-isoindol-5-yl]methyl]urea]",IC50,[1],0.35 µM
same,IC50,[2],1.21 µM
same,IC50,[3],0.0224 µM
same,IC50,[4],0.65 µM
same,IC50,[5],0.0474 µM
same,IC50,[6],0.00755 µM
same,IC50,[7],0.1 µM
same,IC50,[8],> 1 µM
same,IC50,[9],0.00186 µM
same,IC50,[10],0.0123 µM
same,IC50,[11],0.00272 µM
same,IC50,[12],0.102 µM
same,IC50,[13],0.174 µM
same,IC50,[14],0.00863 µM
same,IC50,[15],0.00321 µM
same,IC50,[16],0.408 µM
same,IC50,[17],> 1 µM
same,IC50,[18],> 1 µM
same,IC50,[19],0.0127 µM
same,IC50,[20],0.114 µM
same,IC50,[21],> 1 µM
same,IC50,[22],0.0971 µM
same,IC50,[23],0.0117 µM
same,IC50,[24],> 1 µM
same,IC50,[25],0.0712 µM
same,IC50,[26],0.0959 µM
same,IC50,[27],0.0248 µM
same,IC50,[28],> 1 µM
same,IC50,[29],0.0237 µM
same,IC50,[30],> 1 µM
same,IC50,[31],0.013 µM
same,IC50,[32],0.0031 µM
